Measured values reported in patent publication US9315499B2, “Cytomegalovirus inhibitor compounds” (Boehringer Ingelheim International GmbH, priority 2012, dated 2016).

Biological target: HCMV polymerase (UL54) (Human cytomegalovirus (strain AD169) (HHV-5) (Human herpesvirus 5), UniProt P08546)
Test: biochemical
Settings: LANCE TR-FRET, purified recombinant GST-UL54; read-out: Example C (IC50 nM)
Protocol: HCMV Polymerase LANCE TR-FRET Assay
This non-radiometric assay determines the enzymatic activity of purified recombinant HCMV polymerase (UL54) using a Digoxigenin-labeled oligonucleotide priming a heteropolymeric template. The enzymatic activity is determined by incorporating Biotin-dUTP in the nascent complementary strand. The signal is generated by Fluorescence Resonance Energy Transfer from the donor (Anti-Digoxigenin-Europium Chelate binding with the primer) to the acceptor Streptavidin-AlloPhycoCyanin (SA-APC) binding to the biotin of the labeled nucleotides incorporated in proximity.
Serial dilutions of the DMSO stock compound solution are performed using DMSO in columns 2-11 and 14-23. DMSO alone is present in columns 1, 12, 13 and 24. Three μL of the DMSO serial dilutions is transferred and diluted using 21 μL of compound dilution buffer (10 mM Hepes pH 7.5, 25 mM KCl, 5 mM MgCl2, 1 mM TCEP) to obtain 12.5% DMSO. 4 μL per well of the 12.5% DMSO serial dilution compound solution is added to the assay plate. The plate is centrifuged at 200×g for 30 sec. […]
To perform the assay, 3 μL of the enzyme solution is added to columns 2-12 and 14-24. […] The signal is read on the Envision plate reader (Perkin-Elmer) or equivalent.

O=C(NCc1ccc(Cl)cc1)c1cc2cccnc2n(CC(=O)N2CCC(C(=O)O)C2)c1=O (centres unmarked) [Compound 1029]
IC50: 6200 nM

Nc1c(Br)cnc2c1cc(C(=O)NCc1ccc(Cl)cc1)c(=O)n2CC(=O)N1CCC(CO)C1 (centres unmarked) [Compound 6022]
IC50: 83 nM
